# Data published in ChEMBL document CHEMBL4002552, “Discovery of novel piperidine-substituted indolylarylsulfones as potent HIV NNRTIs via structure-guided scaffold morphing and fragment rearrangement” (Eur J Med Chem, 2017).
# The source made the active and inactive calls. No cut-off for these calls is given here.
# Columns and labels:
# [1] = test system: Human immunodeficiency virus 1; type: functional, cell-based; conditions: Human immunodeficiency virus 1, MT4, 120 h
# [2] = test system: Human immunodeficiency virus 1; type: functional, cell-based; conditions: Human immunodeficiency virus 1, MT4, 120 h; remark: listed apart in the source
# [3] = test system: Human immunodeficiency virus 1; assay: Antiviral activity against HIV1 expressing reverse transcriptase E138K mutant infected in human MT4 cells assessed as protection against virus-induced cytopathic effect after 5 days by MTT assay; type: functional, cell-based; conditions: Human immunodeficiency virus 1, MT4, 120 h
# [4] = Cytotoxicity against human MT4 cells assessed as decrease in cell viability after 5 days by MTT assay; type: cell-based
# [5] = test system: Human immunodeficiency virus 1; assay: Antiviral activity against HIV1 expressing reverse transcriptase K103N mutant infected in human MT4 cells assessed as protection against virus-induced cytopathic effect after 5 days by MTT assay; type: functional, cell-based; conditions: Human immunodeficiency virus 1, MT4, 120 h
# [6] = test system: Human immunodeficiency virus 1; assay: Antiviral activity against HIV1 RES056 expressing reverse transcriptase mutant infected in human MT4 cells assessed as protection against virus-induced cytopathic effect after 5 days by MTT assay; type: functional, cell-based; conditions: Human immunodeficiency virus 1, RES056, MT4, 120 h
# [7] = test system: Human immunodeficiency virus 1; type: functional, cell-based; conditions: Human immunodeficiency virus 1, MT4, 120 h; remark: listed apart in the source
# [8] = Inhibition of recombinant wild type HIV1 reverse transcriptase using poly (A).oligo (dT)15 as template/primer assessed as decrease in biotin-dUTP incorporation after 1 hr by ELISA; set-up: species or system Human immunodeficiency virus 1
# [9] = test system: Human immunodeficiency virus 2; assay: Antiviral activity against HIV2 ROD infected in human MT4 cells assessed as protection against virus-induced cytopathic effect after 5 days by MTT assay; type: functional, cell-based; conditions: ISOLATE ROD
# in vitro [10] = conditions: human, MT4 cells
# Description: Selectivity index, ratio of CC50 for human MT4 cells to EC50 for HIV1 expressing reverse transcriptase K103N mutant
# in vitro [11] = conditions: human, MT4 cells; remark: listed apart in the source
# Description: Selectivity index, ratio of CC50 for human MT4 cells to EC50 for HIV1 expressing reverse transcriptase E138K mutant
# in vitro [12] = conditions: human, MT4 cells; remark: listed apart in the source
# Description: Selectivity index, ratio of CC50 for human MT4 cells to EC50 for HIV1 expressing reverse transcriptase Y181C mutant
# in vitro [13] = conditions: human, MT4 cells; remark: listed apart in the source
# Description: Selectivity index, ratio of CC50 for human MT4 cells to EC50 for HIV1 expressing reverse transcriptase F227L/V106A double mutant
# in vitro [14] = conditions: human, MT4 cells; remark: listed apart in the source
# Description: Selectivity index, ratio of CC50 for human MT4 cells to EC50 for HIV1 RES056 expressing reverse transcriptase mutant
# in vitro [15] = conditions: human, MT4 cells; remark: listed apart in the source
# Description: Selectivity index, ratio of CC50 for human MT4 cells to EC50 for HIV1 3B expressing wild type reverse transcriptase
# [16] = test system: Human immunodeficiency virus 1; assay: microbe, parasite or virus in culture; conditions: Human immunodeficiency virus 1, MT4, 120 h
# Description: Antiviral activity against HIV1 expressing reverse transcriptase L100I mutant infected in human MT4 cells assessed as protection against virus-induced cytopathic effect after 5 days by MTT assay
# in vitro [17] = conditions: human, MT4 cells; remark: listed apart in the source
# Description: Selectivity index, ratio of CC50 for human MT4 cells to EC50 for HIV1 expressing reverse transcriptase Y188L mutant
# [18] = test system: Human immunodeficiency virus 1; assay: microbe, parasite or virus in culture; conditions: Human immunodeficiency virus 1, 3B, MT4, 120 h
# Description: Antiviral activity against HIV1 3B expressing wild type reverse transcriptase infected in human MT4 cells assessed as protection against virus-induced cytopathic effect after 5 days by MTT assay
# in vitro [19] = conditions: human, MT4 cells; remark: listed apart in the source
# Description: Selectivity index, ratio of CC50 for human MT4 cells to EC50 for HIV1 expressing reverse transcriptase L100I mutant
# [20] = test system: Human immunodeficiency virus 1; assay: Resistance ratio of EC50 for HIV1 expressing reverse transcriptase K103N mutant to EC50 for HIV1 3B expressing wild type reverse transcriptase; type: functional
# [21] = test system: Human immunodeficiency virus 1; assay: Potency index, ratio of nevirapine EC50 to test compound EC50 for HIV1 3B expressing wild type reverse transcriptase; type: functional
# [22] = test system: Human immunodeficiency virus 1; assay: Resistance ratio of EC50 for HIV1 expressing reverse transcriptase L100I mutant to EC50 for HIV1 3B expressing wild type reverse transcriptase; type: functional
# [23] = test system: Human immunodeficiency virus 1; assay: Potency index, ratio of delavirdine EC50 to test compound EC50 for HIV1 3B expressing wild type reverse transcriptase; type: functional
Structure (SMILES),EC50 [1] [µM],EC50 [2] [µM],EC50 [3] [µM],CC50 at 120 h [4] [µM],EC50 [5] [µM],EC50 [6] [µM],EC50 [7] [µM],IC50 [8] [µM],selectivity ratio (in vitro [10]),selectivity ratio (in vitro [11]),selectivity ratio (in vitro [12]),selectivity ratio (in vitro [13]),selectivity ratio (in vitro [15]),EC50 [16] [µM],selectivity ratio (in vitro [17]),EC50 [18] [µM],selectivity ratio (in vitro [19]),further results
Cc1ccnc2c1NC(=O)c1cccnc1N2C1CC1 [NEVIRAPINE],4.4,3.8,0.16,> 15,3.6,2.2,3.5,2.8,,,,,,,,,,
O=C1Nc2ccc(Cl)cc2[C@@](C#CC2CC2)(C(F)(F)F)O1 [EFAVIRENZ],0.092,0.005,,> 6.3,0.098,0.11,0.076,,,,,,,,,,,
Cc1cc(C)cc(S(=O)(=O)c2c(C(=O)NCC3CCN(CCO)CC3)[nH]c3ccc(Cl)cc23)c1,> 6.7,0.56,0.3,6.7,0.32,> 6.7,0.62,,21,22,12,11,205,0.11,< 1,0.032,59,Activity [9]: inactive; selectivity ratio (in vitro [14]): < 1
CC(C)Nc1cccnc1N1CCN(C(=O)c2cc3cc(NS(C)(=O)=O)ccc3[nH]2)CC1 [DELAVIRDINE],0.55,1.9,0.07,> 43.8,2.5,≥ 37,2.6,,18,634,23,17,1880,3.5,81,0.024,13,
Cc1cc(C#N)cc(C)c1Oc1nc(Nc2ccc(C#N)cc2)nc(N)c1Br [ETRAVIRINE],0.015,0.014,0.011,,,0.034,,1.1,,,,,,0.009,,,,
Cc1cc(C)cc(S(=O)(=O)c2c(C(=O)NC3CCN(CCO)CC3)[nH]c3ccc(Br)cc23)c1,> 6.3,0.13,0.14,6.3,0.084,> 6.3,0.22,,74,46,48,28,1000,0.017,< 1,0.006,368,Ratio EC50 [20]: 14; Activity [9]: inactive; Ratio EC50 [21]: 20; Ratio EC50 [22]: 2.8; selectivity ratio (in vitro [14]): < 1; Ratio EC50 [23]: 4
CCOC(=O)CCN1CCC(CNC(=O)c2[nH]c3ccc(Cl)cc3c2S(=O)(=O)c2cc(C)cc(C)c2)CC1,,,,19.2,,,,10.1,,,,,,,,,,
